Experimental data published in US20240025922A1, “TETRAHYDROPYRIDO[3,4-d]PYRIMIDINES AS HPK1 INHIBITORS” (Merck Patent GmbH, priority 2022, published 2024).
Where two headings read alike, the source gives them in different places.

How the values were obtained:
[1] = target: HPK1 (SLP76 phosphorylation at Ser376 in Jurkat and EL-4 cells) (Homo sapiens, UniProt Q92918); format: cell-based
Description: Cellular Assay—Phospho-SLP-76 (Ser376).
Inhibition of HPK1 enzymatic activity in cells was determined by detection of SLP76 phosphorylation at Ser376 residue in lysate from Jurkat (human) and EL-4 (mouse) cells. Jurkat and EL-4 cells express both HPK1 and SLP76 naturally. All cells were cultured in RPMI 1640 media containing 10% heat inactivated fetal bovine serum (FBS) and 1×Penicillin-Streptomycin. In either Jurkat or El-4 assay, cells were pre-incubated with test compounds prior to T cell stimulation by respective αCD3/αCD28 Dynabeads™. For detection, plates were read on the Envision and percent inhibition and IC50 were determined by Smart fit in Genedata Analyzer.
For Jurkat cells: 35 μL cell suspension were dispensed at a density of 30,000 cells/well in 384-well plates containing HBSS (Gibco, 14025076)+0.1% BSA). 10-point logarithmic serial dilution of test compounds in DMSO were prepared by a Hamilton automated liquid handling robot and 35 nL was transferred into each well by an Echo liquid handler. After 60 min. pre-incubation, the cells were stimulated by adding 5 μL human T activator αCD3/αCD28 Dynabeads™ (Gibco, 11132D) at 1.2×107 beads/mL for 15 minutes at 37° C. Detection of Ser376 phosphorylation status was accomplished by first adding 10 μL of 5×AlphaLISA lysis buffer (Perkin Elmer, ALSU-PSLP-A500) to each well of the cell plate using a Multidrop Combi (5840300), followed by 20 minutes shaking. 10 μL cell lysate from each treatment were then transferred to a white 384-well plate (Corning 3572) and incubated with AlphaLISA acceptor beads for one hour (AlphaLISA SureFire Ultra p-SLP76(Ser376), Perkin Elmer, ALSU-PSLP-A500), and donor beads for additional 2 hours at room temperature in the dark.
For EL-4.IL2 assay, 50 μL cell suspension at 2×10^6 cells/mL in HBSS were first dispensed into 384-well plates and then 50 nL serial dilutions of test compounds were spotted to each well by an Echo liquid handler. After 60 min. incubation at 37° C., cells were stimulated by adding 5 μL mouse T cell activator αCD3/αCD28 Dynabeads™ (ThermFisher Scientific, 11452D) for 30 minutes at 37° C. After a brief spin and subsequent supernatant discarded, 12.5 μL of Cisbio lysis buffer were added to each well and plates were shaken for 30 min at 450 RPM. For detection, 4 μL prepared HTRF antibody mixture (Cisbio, 63ADK000U) in detection buffer were mixed with 16 μl of cell lysate and plates were incubated at room temperature for 19 hours prior to EnVision reading.

[2] = target: full-length human HPK1 (MAP4K1) (Homo sapiens (Human), UniProt Q92918); assay: HPK1 Kinase Assay (Biochemical Assay), ADP-Glo; conditions: GST-HPK1 3.2 nM, 10 μM ATP, MBP substrate, read-out: HPK1 enzymatic IC50
Sequence of full-length human HPK1 (MAP4K1) (Q92918 whole entry): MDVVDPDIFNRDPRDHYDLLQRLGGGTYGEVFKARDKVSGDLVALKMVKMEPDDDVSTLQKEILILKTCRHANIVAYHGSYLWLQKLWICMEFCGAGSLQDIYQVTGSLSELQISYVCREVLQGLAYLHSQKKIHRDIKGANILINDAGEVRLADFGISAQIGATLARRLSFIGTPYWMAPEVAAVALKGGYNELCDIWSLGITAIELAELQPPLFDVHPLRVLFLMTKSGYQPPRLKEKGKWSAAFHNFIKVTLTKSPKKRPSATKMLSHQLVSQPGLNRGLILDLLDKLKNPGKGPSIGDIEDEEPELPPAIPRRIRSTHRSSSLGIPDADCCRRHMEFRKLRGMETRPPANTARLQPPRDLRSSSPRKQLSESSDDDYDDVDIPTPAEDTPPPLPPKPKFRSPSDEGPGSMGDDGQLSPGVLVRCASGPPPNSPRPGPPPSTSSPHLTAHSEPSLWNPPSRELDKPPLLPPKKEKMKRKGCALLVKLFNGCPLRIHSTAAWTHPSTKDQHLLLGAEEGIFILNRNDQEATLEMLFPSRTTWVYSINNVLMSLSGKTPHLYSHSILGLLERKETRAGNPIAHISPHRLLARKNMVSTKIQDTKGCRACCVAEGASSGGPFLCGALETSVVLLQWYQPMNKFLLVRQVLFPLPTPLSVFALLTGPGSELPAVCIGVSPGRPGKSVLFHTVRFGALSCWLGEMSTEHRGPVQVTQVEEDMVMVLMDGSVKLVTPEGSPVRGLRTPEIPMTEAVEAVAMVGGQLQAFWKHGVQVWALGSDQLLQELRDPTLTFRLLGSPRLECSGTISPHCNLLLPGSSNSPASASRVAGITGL
How it was run: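 GST-tagged full-length human HPK1 was expressed in Sf21 cells and used at 3.2 nM in 50 mM HEPES pH 7.5, 10 mM MgCl2, 2 mM DTT, 12.5 mM O-glycerophosphate, 0.01% BSA and 0.02% Brij-35. It was preincubated 15 min with 10-point compound dilutions, and the reaction was started with a start mix of 10 μM ATP and 3.235 μM MBP. After 120 min, ADP was measured by ADP-Glo luminescence and IC50 derived.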

[3] = αCD3/αCD28 Dynabeads stimulated cells, pSLP76 (Ser376) detection; read-out: HPK1 pSLP76 IC50
[4] = read-out: HPK1 pSLP76 IC50; αCD3/αCD28 Dynabeads stimulated cells, pSLP76 (Ser376) detection

Sequence of HPK1 (SLP76 phosphorylation at Ser376 in Jurkat and EL-4 cells) (Q92918 whole entry, looked up): as the sequence (Q92918 whole entry) above

| Compound | IC50 [1, 3] | IC50 [2] | IC50 [1, 4] |
| --- | --- | --- | --- |
| Cc1c(N2CCc3cnc(Nc4ccc(C5CCN(C)CC5)c(CO)c4)nc3C2)cnc2c1NCCO2 [Example 107, (5-((7-(8-methyl-2,3-dihydro-1H-pyrido[2,3-b][1,4]oxazin-7-yl)-5,6,7,8-tetrahydropyrido[3,4-d]pyrimidin-2-yl)amino)-2-(1-methylpiperidin-4-yl)phenyl)methanol] | 500 to 1000 nM | < 100 nM | – |
| Cc1cc(Nc2ncc3c(n2)CN(c2cnc4c(c2C)NCCO4)CC3)ccc1NC(=O)CN(C)C [Example 45, 2-(dimethylamino)-N-{2-methyl-4-[(7-{8-methyl-1H,2H,3H-pyrido[2,3-b][1,4]oxazin-7-yl}-5H,6H,7H,8H-pyrido[3,4-d]pyrimidin-2-yl)amino]phenyl}acetamide] | < 500 nM | < 100 nM | – |
| Cc1c(N2CCc3cnc(Nc4cccc(N5CCN(C)CC5)c4)nc3C2)cnc2c1NCCO2 [Example 61, 7-{8-methyl-1H,2H,3H-pyrido[2,3-b][1,4]oxazin-7-yl}-N-[3-(4-methylpiperazin-1-yl)phenyl]-5H,6H,7H,8H-pyrido[3,4-d]pyrimidin-2-amine] | – | < 100 nM | 500 to 1000 nM |
| COC1CN(C(=O)Cc2ccc(Nc3ncc4c(n3)CN(c3cnc5c(c3C)NCCO5)CC4)cc2)C1 [Example 181, 1-(3-methoxyazetidin-1-yl)-2-{4-[(7-{8-methyl-1H,2H,3H-pyrido[2,3-b][1,4]oxazin-7-yl}-5H,6H,7H,8H-pyrido[3,4-d]pyrimidin-2-yl)amino]phenyl}ethan-1-one] | < 500 nM | < 100 nM | – |
| Cc1cc(Nc2ncc3c(n2)CN(c2cnc4c(c2C)NCCO4)CC3)ccc1C(=O)NCCN1CCOCC1 [Example 39, 2-methyl-4-[(7-{8-methyl-1H,2H,3H-pyrido[2,3-b]oxazin-7-yl}-5H,6H,7H,8H-pyrido[3,4-d]pyrimidin-2-yl)amino]-N-[2-(morpholin-4-yl)ethyl] benzamide] | < 500 nM | < 100 nM | – |
| CS(=O)(=O)Cc1ccc(Nc2ncc3c(n2)CN(c2cnc4c(c2C2CC2)NCCO4)CC3)cc1 [Example 132, 7-{8-cyclopropyl-1H,2H,3H-pyrido[2,3-b][1,4]oxazin-7-yl}-N-[4-(methanesulfonylmethyl)phenyl]-5H,6H,7H,8H-pyrido[3,4-d]pyrimidin-2-amine] | < 500 nM | < 100 nM | – |
| CNCc1cccc(Nc2ncc3c(n2)CN(c2cnc4c(c2C)NCCO4)CC3)c1 [Example 46, 7-{8-methyl-1H,2H,3H-pyrido[2,3-b][1,4]oxazin-7-yl}-N-{3-[(methylamino)methyl]phenyl}-5H,6H,7H,8H-pyrido[3,4-d]pyrimidin-2-amine] | 500 to 1000 nM | < 100 nM | – |
| Cc1c(N2CCc3cnc(Nc4cnc5c(c4)CN(C)CC5)nc3C2)cnc2c1NCCO2 [Example 115, 7-(8-methyl-2,3-dihydro-1H-pyrido[2,3-b][1,4]oxazin-7-yl)-N-(6-methyl-5,6,7,8-tetrahydro-1,6-naphthyridin-3-yl)-5,6,7,8-tetrahydropyrido[3,4-d]pyrimidin-2-amine] | 500 to 1000 nM | < 100 nM | – |
| COCCOCCS(=O)(=O)c1ccc(Nc2ncc3c(n2)CN(c2cnc4c(c2C)NCCO4)CC3)cc1 [Example 147, N-{4-[2-(2-methoxyethoxy)ethanesulfonyl]phenyl}-7-{8-methyl-1H,2H,3H-pyrido[2,3-b][1,4]oxazin-7-yl}-5H,6H,7H,8H-pyrido[3,4-d]pyrimidin-2-amine] | < 500 nM | < 100 nM | – |
| Cc1c(N2CCc3cnc(Nc4ccnc(CS(C)(=O)=O)c4)nc3C2)cnc2c1NCCO2 [Example 49, 7-(8-methyl-2,3-dihydro-1H-pyrido[2,3-b][1,4]oxazin-7-yl)-N-(2-((methylsulfonyl)methyl)pyridin-4-yl)-5,6,7,8-tetrahydropyrido[3,4-d]pyrimidin-2-amine] | 500 to 1000 nM | < 100 nM | – |
| Cc1c(N2CCc3cnc(Nc4ccc(CO)cc4)nc3C2)cnc2c1NCCO2 [Example 133, {4-[(7-{8-methyl-1H,2H,3H-pyrido[2,3-b][1,4]oxazin-7-yl}-5H,6H,7H,8H-pyrido[3,4-d]pyrimidin-2-yl)amino]phenyl}methanol] | < 500 nM | < 100 nM | – |
| Cc1cnsc1N1CCc2cnc(Nc3cnc4c(c3)CN(C)CC4)nc2C1 [Example 119, N-(6-methyl-5,6,7,8-tetrahydro-1,6-naphthyridin-3-yl)-7-(4-methylisothiazol-5-yl)-5,6,7,8-tetrahydropyrido[3,4-d]pyrimidin-2-amine] | > 1000 nM | < 100 nM | – |
| Cc1c(N2CCc3cnc(Nc4ccc(N5CCN(C)CC5)cc4)nc3C2)cnc2c1NCCO2 [Example 55, 7-(8-methyl-2,3-dihydro-1H-pyrido[2,3-b][1,4]oxazin-7-yl)-N-(4-(4-methylpiperazin-1-yl)phenyl)-5,6,7,8-tetrahydropyrido[3,4-d]pyrimidin-2-amine] | – | < 100 nM | 500 to 1000 nM |
| Cc1cc(Nc2cc3c(cn2)CCN(c2cnc4c(c2C)NCCO4)C3)ccc1C(=O)NCCN1CCOCC1 [Example 27, 2-methyl-4-[(6-{8-methyl-1H,2H,3H-pyrido[2,3-b][1,4]oxazin-7-yl}-5,6,7,8-tetrahydro-2,6-naphthyridin-3-yl)amino]-N-[2-(morpholin-4-yl)ethyl]benzamide] | 500 to 1000 nM | < 100 nM | – |
| Cc1cc(Nc2cc3c(cn2)CCN(c2cnc4c(c2C)NCCO4)C3)ccc1NCCN1CCOCC1 [Example 15, 2-methyl-N4-(6-{8-methyl-1H,2H,3H-pyrido[2,3-b][1,4]oxazin-7-yl}-5,6,7,8-tetrahydro-2,6-naphthyridin-3-yl)-N1-[2-(morpholin-4-yl)ethyl]benzene-1,4-diamine] | 500 to 1000 nM | < 100 nM | – |
| Cc1c(N2CCc3cnc(Nc4ccc(N5CCC(O)CC5)c(CC#N)c4)nc3C2)cnc2c1NCCO2 [Example 91, 2-(2-(4-hydroxypiperidin-1-yl)-5-((7-(8-methyl-2,3-dihydro-1H-pyrido[2,3-b][1,4]oxazin-7-yl)-5,6,7,8-tetrahydropyrido[3,4-d]pyrimidin-2-yl)amino)phenyl)acetonitrile] | < 500 nM | < 100 nM | – |
| Cc1c(N2CCc3cnc(Nc4ccc(CN5CCCC5)cc4)nc3C2)cnc2c1NCCO2 [Example 125, 7-{8-methyl-1H,2H,3H-pyrido[2,3-b][1,4]oxazin-7-yl}-N-{4-[(pyrrolidin-1-yl)methyl]phenyl}-5H,6H,7H,8H-pyrido[3,4-d]pyrimidin-2-amine] | > 1000 nM | < 100 nM | – |
| Cc1c(N)cncc1N1CCc2cnc(Nc3cnc4c(c3)CN(C)CC4)nc2C1 [Example 116, 7-(5-amino-4-methylpyridin-3-yl)-N-(6-methyl-5,6,7,8-tetrahydro-1,6-naphthyridin-3-yl)-5,6,7,8-tetrahydropyrido[3,4-d]pyrimidin-2-amine] | > 1000 nM | < 100 nM | – |
| Cc1c(N2CCc3cnc(Nc4ccc(CN5CCOC5=O)cc4)nc3C2)cnc2c1NCCO2 [Example 188, 3-({4-[(7-{8-methyl-1H,2H,3H-pyrido[2,3-b][1,4]oxazin-7-yl}-5H,6H,7H,8H-pyrido[3,4-d]pyrimidin-2-yl)amino]phenyl}methyl)-1,3-oxazolidin-2-one] | < 500 nM | < 100 nM | – |
| COCCOc1ccc(Nc2ncc3c(n2)CN(c2cnc4c(c2C)NCCO4)CC3)cc1 [Example 98, N-(4-(2-methoxyethoxy)phenyl)-7-(8-methyl-2,3-dihydro-1H-pyrido[2,3-b][1,4]oxazin-7-yl)-5,6,7,8-tetrahydropyrido[3,4-d]pyrimidin-2-amine] | 500 to 1000 nM | < 100 nM | – |
